Active and inactive are the calls of the source.
Key:
Format in all cases: functional, organism-based
Klebsiella pneumoniae [1] = experiment: Antimicrobial activity against catheter-associated biofilm of Klebsiella pneumoniae assessed as reduction of CFU
Acinetobacter baumannii = experiment: Antimicrobial activity against catheter-associated biofilm of Acinetobacter baumannii assessed as reduction of CFU
Staphylococcus aureus [2] = experiment: Antimicrobial activity against catheter-associated biofilm of methicillin-resistant Staphylococcus aureus assessed as reduction of CFU
Staphylococcus aureus [3] = experiment: Antimicrobial activity against catheter-associated biofilm of methicillin-sensitive Staphylococcus aureus assessed as reduction of CFU
[4] = system: Staphylococcus epidermidis; experiment: Antimicrobial activity against catheter-associated biofilm of methicillin-resistant Staphylococcus epidermidis assessed as reduction of CFU
Staphylococcus aureus [5] = experiment: Antimicrobial activity against catheter-associated biofilm of methicillin-resistant Staphylococcus aureus
Klebsiella pneumoniae [6] = experiment: Antimicrobial activity against catheter-associated biofilm of Klebsiella pneumoniae
[7] = system: Staphylococcus epidermidis; experiment: Antimicrobial activity against catheter-associated biofilm of methicillin-resistant Staphylococcus epidermidis

Measured: Activity

CN(C)c1cc(NC(=O)CNC(C)(C)C)c(O)c2c1C[C@H]1C[C@H]3[C@H](N(C)C)C(O)=C(C(N)=O)C(=O)[C@@]3(O)C(O)=C1C2=O
active: Klebsiella pneumoniae [1] | Acinetobacter baumannii | Staphylococcus aureus [2] | Staphylococcus aureus [3] | [4]

CC(=O)N[C@@H](CS)C(=O)O
active: Staphylococcus aureus [5] | Klebsiella pneumoniae [6] | [7]

Reference: ChEMBL document CHEMBL1145537, “Combination of tigecycline and N-acetylcysteine reduces biofilm-embedded bacteria on vascular catheters” (Antimicrob Agents Chemother, 2007)
